Experimental data taken from US10357493B2, “Metalloenzyme inhibitor compounds” (Selenity Therapeutics (Bermuda), Ltd., priority 2017, dated 2019).

Columns and labels:
HDAC6 = HDAC6 (Homo sapiens (Human), UniProt Q9UBN7); experiment: HDAC6 enzymatic assay; type: biochemical; details: read-out: Human HDAC6 IC50
How it was run: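 Following a 17 hour room-temperature incubation of 2 ng HDAC6 with 10 uM substrate and compound, 50 μl developer was added for another 20 minutes, and fluorescence (excitation 360 nm, emission 460 nm) was recorded. Activity was normalized to no-compound (100%) and no-enzyme (0%) wells, and IC50 came from sigmoidal dose-response fitting in Graphpad Prism.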

[1] = Mouse Pharmacokinetics, oral single dose; type: in vivo, male Swiss Albino mice; details: male, Swiss Albino, plasma, 5 mg/kg, formulation by footnote: a 20% CremEL in H20, b 1% CMC in water, c 2% DMSO, 0.2% Tween80, 97.8% of 1% CMC
Experimental: Example 187: Mouse Pharmacokinetics
A dose of 5 mg/kg in an appropriate formulation was administered by oral gavage to fasted male Swiss Albino mice (n=3), and the plasma was collected at 0, 0.25, 0.5, 1, 2, 4, 8, and 24 h. Plasma levels were measured by HPLC/MS/MS methods and the pharmacokinetic parameters were determined for individual animals from plasma concentration-time data using noncompartmental model 200-202 in Phoenix WinNonlin 6.3.

HDAC1 = HDAC1 (Homo sapiens (Human), UniProt Q13547); experiment: HDAC1 enzymatic assay; type: biochemical; details: read-out: Human HDAC1 IC50
How it was run: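 Compound inhibition of human HDAC1 (0.5 ng enzyme, 10 uM substrate) was assessed by fluorescence after developer treatment, excitation 360 nm and emission 460 nm. Percent activity was normalized to no-compound (100%) and no-enzyme (0%) controls, plotted against concentration, and fitted to a sigmoidal dose-response curve in Graphpad Prism to obtain IC50 at half-maximal activity.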

Chain of HDAC6 (Q9UBN7 whole entry): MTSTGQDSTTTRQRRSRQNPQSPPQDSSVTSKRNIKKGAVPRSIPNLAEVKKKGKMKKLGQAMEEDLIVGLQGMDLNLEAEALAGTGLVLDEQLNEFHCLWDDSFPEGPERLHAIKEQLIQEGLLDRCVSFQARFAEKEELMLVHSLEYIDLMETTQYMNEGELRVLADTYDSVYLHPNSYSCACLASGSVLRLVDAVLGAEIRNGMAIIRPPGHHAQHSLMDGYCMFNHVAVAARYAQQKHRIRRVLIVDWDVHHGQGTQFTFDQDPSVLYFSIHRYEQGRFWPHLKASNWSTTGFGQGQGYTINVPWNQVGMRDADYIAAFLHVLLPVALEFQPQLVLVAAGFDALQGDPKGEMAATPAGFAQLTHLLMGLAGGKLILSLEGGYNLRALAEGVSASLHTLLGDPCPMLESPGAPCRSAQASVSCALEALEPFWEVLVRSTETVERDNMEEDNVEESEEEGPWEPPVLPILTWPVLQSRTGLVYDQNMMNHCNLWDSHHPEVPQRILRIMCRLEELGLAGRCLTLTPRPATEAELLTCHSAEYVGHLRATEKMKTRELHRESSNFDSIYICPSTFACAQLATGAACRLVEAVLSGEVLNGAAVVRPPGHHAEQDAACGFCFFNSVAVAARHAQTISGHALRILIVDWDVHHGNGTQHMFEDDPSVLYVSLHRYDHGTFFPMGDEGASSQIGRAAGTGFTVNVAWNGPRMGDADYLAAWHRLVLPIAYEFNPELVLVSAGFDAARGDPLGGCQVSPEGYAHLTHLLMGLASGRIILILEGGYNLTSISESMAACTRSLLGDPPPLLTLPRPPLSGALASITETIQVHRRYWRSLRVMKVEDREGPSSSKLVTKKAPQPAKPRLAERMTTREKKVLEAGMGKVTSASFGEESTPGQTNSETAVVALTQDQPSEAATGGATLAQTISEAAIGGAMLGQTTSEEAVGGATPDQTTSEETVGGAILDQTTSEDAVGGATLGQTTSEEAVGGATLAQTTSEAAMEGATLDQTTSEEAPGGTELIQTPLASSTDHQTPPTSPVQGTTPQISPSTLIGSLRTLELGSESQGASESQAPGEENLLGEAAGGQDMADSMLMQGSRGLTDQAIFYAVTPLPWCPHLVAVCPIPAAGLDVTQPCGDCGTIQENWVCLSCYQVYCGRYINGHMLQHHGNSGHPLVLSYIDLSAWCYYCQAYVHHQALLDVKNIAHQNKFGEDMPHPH
Chain of HDAC1 (Q13547 whole entry): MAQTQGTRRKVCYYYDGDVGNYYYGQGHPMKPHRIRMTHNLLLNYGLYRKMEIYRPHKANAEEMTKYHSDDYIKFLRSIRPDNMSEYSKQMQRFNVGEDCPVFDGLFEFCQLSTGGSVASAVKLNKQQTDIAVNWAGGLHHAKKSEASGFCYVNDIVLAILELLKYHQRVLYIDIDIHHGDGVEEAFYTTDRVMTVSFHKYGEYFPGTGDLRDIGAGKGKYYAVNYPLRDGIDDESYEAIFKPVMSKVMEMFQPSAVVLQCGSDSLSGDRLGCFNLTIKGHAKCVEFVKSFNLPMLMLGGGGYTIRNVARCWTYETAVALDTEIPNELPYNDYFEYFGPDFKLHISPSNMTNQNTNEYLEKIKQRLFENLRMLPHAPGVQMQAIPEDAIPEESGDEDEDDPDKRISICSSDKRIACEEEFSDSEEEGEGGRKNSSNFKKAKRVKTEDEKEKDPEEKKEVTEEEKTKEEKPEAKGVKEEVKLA

IC50 (HDAC6) | Cmax [1] | half-life [1] | IC50 (HDAC1) | SMILES
17 nM | 1010 ng/mL | 4.5 h | > 30000 nM | CS(=O)(=O)NCC(Nc1ncc(-c2nnc(C(F)F)o2)cn1)c1ccc(OC(F)F)cc1F (single isomer, unassigned) [116(+), N-(2-(4-(difluoromethoxy)-2-fluorophenyl)-2-((5-(5-(difluoromethyl)-1,3,4-oxadiazol-2-yl)pyrimidin-2-yl)amino)ethyl)methanesulfonamide]
230 nM | 2590 ng/mL | 3.3 h | > 30000 nM | CS(=O)(=O)NCC(Nc1ncc(-c2nnc(C(F)F)o2)cn1)c1ccc(F)c(F)c1 (single isomer, unassigned) [171(+), N-(2-((5-(5-(difluoromethyl)-1,3,4-oxadiazol-2-yl)pyrimidin-2-yl)amino)-2-(3,4-difluorophenyl)ethyl)methanesulfonamide]
16 nM | 2370 ng/mL | 3.2 h | > 30000 nM | CS(=O)(=O)NCC(Nc1ncc(-c2nnc(C(F)F)o2)cn1)c1ccc(F)cc1F (single isomer, unassigned) [103(+), N-(2-((5-(5-(difluoromethyl)-1,3,4-oxadiazol-2-yl)pyrimidin-2-yl)amino)-2-(2,4-difluorophenyl)ethyl)methanesulfonamide]
23 nM | 3390 ng/mL | 9.3 h | > 30000 nM | O=S(=O)(NCC(Nc1ncc(-c2nnc(C(F)F)o2)cn1)c1ccc(OC(F)F)cc1F)C1CC1 (stereo not drawn) [150(+), N-(2-(4-(difluoromethoxy)-2-fluorophenyl)-2-((5-(5-(difluoromethyl)-1,3,4-oxadiazol-2-yl)pyrimidin-2-yl)amino)ethyl)cyclopropanesulfonamide]
37 nM | 678 ng/mL | 3.4 h | > 30000 nM | CC(C)S(=O)(=O)NCC(Nc1ncc(-c2nnc(C(F)F)o2)cn1)c1ccc(F)cc1 (centres unmarked) [Example 109, N-(2-((5-(5-(difluoromethyl)-1,3,4-oxadiazol-2-yl)pyrimidin-2-yl)amino)-2-(4-fluorophenyl)ethyl)propane-2-sulfonamide]
